ChEMBL document CHEMBL5532706, “Passifetilactones A-E, Fatty Acid Lactones from the Fruit and Flowers of Passiflora foetida with Cytotoxic Activity” (J Nat Prod, 2024)
pIC50: −log10 of the molar value. The source made the active and inactive calls. The rule behind the calls is not given here.

Assays:
PC-3 = test: Cytotoxicity against human PC-3 cells assessed as inhibition of cell growth incubated for 72 hrs by MTT assay; format: functional, cell-based; details: PC-3, 72 h
HeLa = test: Cytotoxicity against human HeLa cells assessed as inhibition of cell growth incubated for 72 hrs by MTT assay; format: functional, cell-based
KKU-M055 [1] = test: Cytotoxicity against human KKUM055 cells assessed as inhibition of cell growth incubated for 48 hrs by MTT assay; format: functional, cell-based; details: for pIC50: KKU-M055, 48 h
A549 = test: Cytotoxicity against human A549 cells assessed as inhibition of cell growth incubated for 72 hrs by MTT assay; format: functional, cell-based; details: A549, 72 h
[2] = Cytotoxicity against African green monkey Vero cells assessed as inhibition of cell growth incubated for 72 hrs by MTT assay; format: toxicity, cell-based; details: African green monkey (Chlorocebus sabaeus)
[3] = Cytotoxicity against human MMNK-1 cells assessed as inhibition of cell growth incubated for 48 hrs by MTT assay; format: toxicity, cell-based; details: for IC50 at 48 h: MMNK-1 cells
KKUM213 [4] = test: Induction of apoptosis in human KKUM213 cells assessed as total apoptotic cells at 7 ug/ml incubated for 48 hrs by Annexin V-FITC/PI staining based flow cytometry analysis (reference value: 18.14%); format: functional, KKU-213A; details: dose 7 µg/ml
KKUM213 [5] = test: Cytotoxicity against human KKUM213 cells assessed as inhibition of cell growth incubated for 48 hrs by MTT assay; format: functional, cell-based; details: KKU-213A
KKU-M055 [6] = test: Induction of apoptosis in human KKUM055 cells assessed as total apoptotic cells at 7 ug/ml incubated for 48 hrs by Annexin V-FITC/PI staining based flow cytometry analysis (reference value: 16.44%); format: functional; details: dose 7 µg/ml
KKU-M055 [7] = test: Induction of apoptosis in human KKUM055 cells assessed as total apoptotic cells at 2 ug/ml incubated for 48 hrs by Annexin V-FITC/PI staining based flow cytometry analysis (reference value: 16.44%); format: functional; details: dose 2 µg/ml
KKUM213 [8] = test: Induction of apoptosis in human KKUM213 cells assessed as total apoptotic cells at 2 ug/ml incubated for 48 hrs by Annexin V-FITC/PI staining based flow cytometry analysis (reference value: 18.14%); format: functional, KKU-213A; details: dose 2 µg/ml
KKUM213 [9] = test: Induction of apoptosis in human KKUM213 cells assessed as total apoptotic cells at 2 ug/ml incubated for 48 hrs by Annexin V-FITC/PI staining based flow cytometry analysis (reference value: 17.61%); format: functional, KKU-213A; details: dose 2 µg/ml
KKUM213 [10] = test: Induction of apoptosis in human KKUM213 cells assessed as total apoptotic cells at 7 ug/ml incubated for 48 hrs by Annexin V-FITC/PI staining based flow cytometry analysis (reference value: 17.61%); format: functional, KKU-213A; details: dose 7 µg/ml
KKU-M055 [11] = test: Induction of apoptosis in human KKUM055 cells assessed as total apoptotic cells at 7 ug/ml incubated for 48 hrs by Annexin V-FITC/PI staining based flow cytometry analysis (reference value: 22.11%); format: functional; details: dose 7 µg/ml
KKU-M055 [12] = test: Induction of apoptosis in human KKUM055 cells assessed as total apoptotic cells at 2 ug/ml incubated for 48 hrs by Annexin V-FITC/PI staining based flow cytometry analysis (reference value: 22.11%); format: functional; details: dose 2 µg/ml

| Structure (SMILES) | pIC50 (PC-3) | pIC50 (HeLa) | pIC50 (KKU-M055 [1]) | pIC50 (A549) | IC50 at 72 h [2] [µM] | IC50 at 48 h [3] [µM] | Activity (KKUM213 [4]) [%] | pIC50 (KKUM213 [5]) | Activity (KKU-M055 [6]) [%] | Activity (KKU-M055 [7]) [%] | Activity (KKUM213 [8]) [%] | Activity (KKU-M055 [1]) | Activity (KKUM213 [5]) | Activity (KKUM213 [9]) [%] | Activity (KKUM213 [10]) [%] | Activity (KKU-M055 [11]) [%] | Activity (KKU-M055 [12]) [%] | Activity ([3]; mmnk-1, 48 h, time 48 hrs) |
| --- | --- | --- | --- | --- | --- | --- | --- | --- | --- | --- | --- | --- | --- | --- | --- | --- | --- | --- |
| CCCCCCCCCCCCCCC[C@@H]1OC(=O)C=C[C@@H]1O | 5.43 | 5.43 | 4.59 | 5.43 | 3.7 | 57.4 | 69.22 | 4.77 | 86 | 59 | 28.97 |  |  |  |  |  |  |  |
| CCCCCCCCCCCCCCC[C@@H]1C[C@@H]2C[C@@H](CC(=O)O2)O1 | 4.41 | 4.41 |  | 4.41 | 39.1 |  |  |  |  |  |  | inactive | inactive |  |  |  |  |  |
| CCCCCCCCCCCCCCC[C@H]1CC=CC(=O)O1 | 4.91 | 4.91 | 4.70 | 4.91 | 12.2 | 39.3 |  | 4.74 |  |  |  |  |  | 20.64 | 19.95 | 43.4 | 21.29 |  |
| CCCCCCCCCCCCCCC[C@@H](O)[C@@H]1C=CC(=O)O1 |  |  | 4.58 |  |  |  |  | 4.29 |  |  |  |  |  |  |  |  |  | Non-Toxic |
| CCCCCC/C=C\CCCCCCC[C@H]1CC=CC(=O)O1 | 4.63 | 4.95 | 4.51 | 4.77 | 21.2 | 52.9 |  | 4.65 |  |  |  |  |  |  |  |  |  |  |
